A word on the Ki: it is the equilibrium dissociation constant of an inhibitor or competing ligand from its target.

Each structure is given as a SMILES string.

Among the targets are Carbonic anhydrase 2 (Homo sapiens, UniProt P00918); Carbonic anhydrase 4 (Homo sapiens, UniProt P22748); Carbonic anhydrase 1 (Homo sapiens, UniProt P00915).
Common to all, as to assay: Esterase Activity Assay
Common to all, as to details: pH 7.4

The target in the next assay is T1, Carbonic anhydrase 3 (Bos taurus, UniProt Q3SZX4).
T1 sequence (Q3SZX4 whole entry): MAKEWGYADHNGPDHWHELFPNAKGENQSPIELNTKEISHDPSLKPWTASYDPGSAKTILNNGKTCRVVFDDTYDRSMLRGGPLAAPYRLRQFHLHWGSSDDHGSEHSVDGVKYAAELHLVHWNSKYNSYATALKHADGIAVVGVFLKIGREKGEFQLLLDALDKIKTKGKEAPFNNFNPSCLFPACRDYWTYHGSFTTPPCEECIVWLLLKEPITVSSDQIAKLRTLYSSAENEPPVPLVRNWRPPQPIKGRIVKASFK

Carbonic anhydrase 1, sequence (P00915 whole entry): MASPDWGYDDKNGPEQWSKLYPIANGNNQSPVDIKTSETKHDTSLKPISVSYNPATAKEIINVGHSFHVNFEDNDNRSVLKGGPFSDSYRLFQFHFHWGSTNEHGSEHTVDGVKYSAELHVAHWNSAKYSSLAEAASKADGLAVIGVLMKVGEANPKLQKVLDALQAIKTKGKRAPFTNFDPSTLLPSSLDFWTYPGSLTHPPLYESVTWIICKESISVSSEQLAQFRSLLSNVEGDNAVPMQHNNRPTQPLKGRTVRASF
Carbonic anhydrase 4, sequence (P22748 whole entry): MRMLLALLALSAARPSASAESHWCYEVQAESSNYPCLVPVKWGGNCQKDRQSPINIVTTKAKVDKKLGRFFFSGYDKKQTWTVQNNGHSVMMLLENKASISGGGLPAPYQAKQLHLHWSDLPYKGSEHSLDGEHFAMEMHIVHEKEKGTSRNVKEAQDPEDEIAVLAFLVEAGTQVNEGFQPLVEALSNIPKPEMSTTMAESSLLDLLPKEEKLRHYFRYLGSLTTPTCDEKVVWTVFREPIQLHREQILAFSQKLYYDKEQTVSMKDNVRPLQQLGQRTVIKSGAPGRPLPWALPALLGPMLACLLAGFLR

Turning to `O=c1cc(-c2ccc(O)cc2)oc2cc(O)cc(O)c12` [Naringenin, 18], the Ki at Carbonic anhydrase 2 was found to be 2.7 µM; at Carbonic anhydrase 4, 9.1 µM; at Carbonic anhydrase 3 it was 11.6 µM; at Carbonic anhydrase 1, 4.1 µM.
For `O=c1c(O)c(-c2ccc(O)cc2O)oc2cc(O)cc(O)c12` [2-(2,4-dihydroxyphenyl)-3,5,7-trihydroxychromen-4-one], in that order: 4.4 µM, 15.7 µM, 21.3 µM and 12.8 µM.
For `Oc1cccc(O)c1`, in that order: 9.4 µM, 634 µM, 219 µM and 828 µM.
As to `Oc1ccccc1O` [1,2-Dihydroxybenzene, XI], the Ki came out at 11.4 µM on Carbonic anhydrase 2 and 6.5 µM at Carbonic anhydrase 3.
For the molecule `O=c1c(O)c(-c2ccc(O)c(O)c2)oc2cc(O)cc(O)c12` [2-(3,4-dihydroxyphenyl)-3,5,7-trihydroxy-chromone;hydrate], the Ki at Carbonic anhydrase 2 is 2.4 µM; on Carbonic anhydrase 4 it was 13.8 µM; at Carbonic anhydrase 3, 9.1 µM; at Carbonic anhydrase 1, 3.6 µM.
Regarding `Oc1cc(O)c2c(c1)O[C@H](c1ccc(O)c(O)c1)[C@@H](O)C2` [(+)-Catechin], the Ki on Carbonic anhydrase 4 amounted to 5.6 µM; at Carbonic anhydrase 3, 2.2 µM; on Carbonic anhydrase 1 it was 6.8 µM.
With `O=c1cc(-c2ccc(O)c(O)c2)oc2cc(O)cc(O)c12` [2-(3,4-dihydroxyphenyl)-5,7-dihydroxy-4H-chromen-4-one], the Ki amounted to 0.74 µM on Carbonic anhydrase 2, 4.4 µM on Carbonic anhydrase 4, 5.4 µM at Carbonic anhydrase 3 and 2.2 µM at Carbonic anhydrase 1.
The like results for `Oc1ccccc1` were, in that order, 7.4 µM, 14.3 µM, 4.6 µM and 17.3 µM.

Source of the values: BindingDB's records for doi:10.3109/14756366.2011.643303 (Ondokuz Mayis University, 2013).
